Measured values published in patent US12128035B2, “Activating pyruvate kinase R” (Novo Nordisk Health Care AG, priority 2021, dated 2024).

System: 2,3-DPG blood levels
Experiment: Phase 1 SAD/MAD: blood 2,3-DPG (LC-MS/MS) in healthy volunteers
Format: in vivo, human
Method: In this study, SAD/MAD cohorts are randomized (3 to 1) to receive Compound 1 or placebo (P). Compound 1 was evaluated first in 4 healthy SAD cohorts and 4 healthy MAD (14-day dosing period) cohorts. Based on the safety, and PK/PD profile from HS, Compound 1 is then evaluated in 1 SCD SAD cohort and 2 SCD MAD cohorts. Specifically, based on the safety and pharmacokinetic/pharmacodynamics (PK/PD) profile in healthy volunteer studies, Compound 1 is evaluated in patients (pts) with SCD, first in a single dose (SD or SAD) cohort and then in multiple-dose (MD or MAD) cohorts (14-day and 12-week). Safety assessments include AEs, vital signs, ECGs and laboratory parameters. PK/PD blood sampling was performed on Day 1 (SAD/MAD) and Day 14 (MAD) and up to 72 h after the last dose and at the end-of-study visit. PD parameters included 2,3-DPG, ATP, and p50 in all cohorts with additional PD studies (including oxygen scan) performed only in the SCD cohorts. PD parameters included 2,3-DPG, ATP, p50, RBC deformability with controlled deoxygenation and reoxygenation (Lorrca® oxygen scan) and varying osmolality (Lorrca® osmoscan)). To maintain study blind, pt identifiers were removed when needed.
In the SAD cohorts, the subjects' blood 2,3-DPG levels were measured periodically after dosing by a qualified LC-MS/MS method for the quantitation of 2,3-DPG in blood. Decreased 2,3-DPG blood levels were observed 6 hours following a single dose of Compound 1 at all dose levels (earlier timepoints were not collected). Maximum decreases in 2,3-DPG levels generally occurred ˜24 hours after the first dose with the reduction sustained ˜48-72 hr postdose. Table 15 reports the median percentage change in 2,3-DPG blood levels, relative to baseline, measured over time in healthy volunteers after a single dose of Compound 1 (200 mg, 400 mg, 700 mg, or 1000 mg) or placebo. Table 16 reports the mean percentage change in 2,3-DPG blood levels, relative to baseline, measured over time in healthy volunteers after a single dose of Compound 1 (200 mg, 400 mg, 700 mg, or 1000 mg). Accordingly, the median and mean reduction in the concentration of 2,3-DPG, relative to baseline, was at least about 30% at all dose levels tested 24 hours after administration of the single dose.
In the MAD cohorts, the subjects' blood 2,3-DPG levels were measured periodically after dosing by a qualified LC-MS/MS method for the quantitation of 2,3-DPG in blood. […] Table 18B reports the mean percentage change in 2,3-DPG blood levels, relative to baseline, measured over time after the first dose on days 1 and 14 in healthy volunteers who received daily doses of Compound 1 (100 mg BID, 200 mg BID, 300 mg BID, or 400 mg QD) for 14 days. Accordingly, the median and mean reduction in the concentration of 2,3-DPG, relative to baseline, was at least about 25% at all dose levels tested 24 hours after administration of the first dose on day 1 and at least about 40% at all dose levels tested 24 hours after administration of the first dose on day 14.
The following procedures are employed for the analysis of ATP and 2,3-DPG in human whole blood K2EDTA using a protein precipitation extraction procedure and analysis by LC-MS/MS.
The following procedures are used for sample extraction prior to analysis via LC-MS/MS. 15.0 μL of the calibration standards, quality controls, matrix blanks, and samples are aliquoted into a 96-well plate. 50.0 μL of the internal standard spiking solution is added to all samples on the plate, with the exception of the matrix blank samples; 50.0 μL of water is added to the matrix blank samples. Subsequently, 150 μL of water is added to all samples on the plate. The plate is then covered and agitated by vortex at high speed for ten minutes, after which 750 μL of methanol is added to all samples on the plate. The plate is covered and agitated by vortex for approximately 1 minute. The plate is then centrifuged at approximately 3500 RPM at approximately 4° C. for five minutes. […]

[1] = HV 200 mg BID, Day 14, 16 h after first daily dose
[2] = HV 200 mg BID, Day 14, 24 h after first daily dose
[3] = HV 200 mg BID, Day 14, 48 h after first daily dose
[4] = HV 200 mg BID, Day 14, 72 h after first daily dose
[5] = HV 300 mg BID, Day 1, 0 h after first daily dose
[6] = HV 300 mg BID, Day 1, 6 h after first daily dose
[7] = HV 300 mg BID, Day 1, 8 h after first daily dose
[8] = HV 300 mg BID, Day 1, 12 h after first daily dose
[9] = HV 300 mg BID, Day 1, 16 h after first daily dose
[10] = HV 300 mg BID, Day 1, 24 h after first daily dose
[11] = HV 300 mg BID, Day 14, 0 h after first daily dose
[12] = HV 300 mg BID, Day 14, 8 h after first daily dose
[13] = HV 300 mg BID, Day 14, 12 h after first daily dose
[14] = HV 300 mg BID, Day 14, 16 h after first daily dose
[15] = HV 300 mg BID, Day 14, 24 h after first daily dose
[16] = HV 300 mg BID, Day 14, 48 h after first daily dose
[17] = HV 300 mg BID, Day 14, 72 h after first daily dose
[18] = HV 400 mg QD, Day 1, 0 h after first daily dose
[19] = HV 400 mg QD, Day 1, 8 h after first daily dose
[20] = HV 400 mg QD, Day 1, 12 h after first daily dose
[21] = HV 400 mg QD, Day 1, 16 h after first daily dose
[22] = HV 400 mg QD, Day 1, 24 h after first daily dose
[23] = HV 400 mg QD, Day 14, 0 h after first daily dose

Compound: O=C([C@H](CO)c1ccccc1)N1CC2=C(C1)CN(S(=O)(=O)c1cnc3c(c1)OCCO3)C2 (single isomer, unassigned) [Compound 1]
- Mean Percentage Change in 2,3-DPG Levels [1]: −49%
- Median Percentage Change in 2,3-DPG Levels [1]: −43%
- Mean Percentage Change in 2,3-DPG Levels [2]: −47%
- Median Percentage Change in 2,3-DPG Levels [2]: −48%
- Mean Percentage Change in 2,3-DPG Levels [3]: −40%
- Median Percentage Change in 2,3-DPG Levels [3]: −39%
- Mean Percentage Change in 2,3-DPG Levels [4]: −23%
- Median Percentage Change in 2,3-DPG Levels [4]: −20%
- Mean Percentage Change in 2,3-DPG Levels [5]: 0%
- Median Percentage Change in 2,3-DPG Levels [5]: 0.0%
- Mean Percentage Change in 2,3-DPG Levels [6]: −20%
- Median Percentage Change in 2,3-DPG Levels [6]: −19%
- Mean Percentage Change in 2,3-DPG Levels [7]: −22%
- Median Percentage Change in 2,3-DPG Levels [7]: −24%
- Mean Percentage Change in 2,3-DPG Levels [8]: −31%
- Median Percentage Change in 2,3-DPG Levels [8]: −32%
- Mean Percentage Change in 2,3-DPG Levels [9]: −39%
- Median Percentage Change in 2,3-DPG Levels [9]: −41%
- Mean Percentage Change in 2,3-DPG Levels [10]: −47%
- Median Percentage Change in 2,3-DPG Levels [10]: −51%
- Mean Percentage Change in 2,3-DPG Levels [11]: −57%
- Median Percentage Change in 2,3-DPG Levels [11]: −59%
- Mean Percentage Change in 2,3-DPG Levels (HV 300 mg BID, Day 14, 6 h after first daily dose): −56%
- Mean Percentage Change in 2,3-DPG Levels [12]: −55%
- Median Percentage Change in 2,3-DPG Levels [12]: −55%
- Mean Percentage Change in 2,3-DPG Levels [13]: −54%
- Median Percentage Change in 2,3-DPG Levels [13]: −55%
- Mean Percentage Change in 2,3-DPG Levels [14]: −53%
- Median Percentage Change in 2,3-DPG Levels [14]: −52%
- Mean Percentage Change in 2,3-DPG Levels [15]: −52%
- Median Percentage Change in 2,3-DPG Levels [15]: −53%
- Mean Percentage Change in 2,3-DPG Levels [16]: −43%
- Median Percentage Change in 2,3-DPG Levels [16]: −45%
- Mean Percentage Change in 2,3-DPG Levels [17]: −34%
- Median Percentage Change in 2,3-DPG Levels [17]: −33%
- Mean Percentage Change in 2,3-DPG Levels [18]: 0%
- Median Percentage Change in 2,3-DPG Levels [18]: 0.0%
- Mean Percentage Change in 2,3-DPG Levels (HV 400 mg QD, Day 1, 6 h after first daily dose): −26%
- Mean Percentage Change in 2,3-DPG Levels [19]: −29%
- Median Percentage Change in 2,3-DPG Levels [19]: −27%
- Mean Percentage Change in 2,3-DPG Levels [20]: −38%
- Median Percentage Change in 2,3-DPG Levels [20]: −38%
- Mean Percentage Change in 2,3-DPG Levels [21]: −42%
- Median Percentage Change in 2,3-DPG Levels [21]: −41%
- Mean Percentage Change in 2,3-DPG Levels [22]: −48%
- Median Percentage Change in 2,3-DPG Levels [22]: −48%
- Mean Percentage Change in 2,3-DPG Levels [23]: −52%
- Median Percentage Change in 2,3-DPG Levels [23]: −51%
- Mean Percentage Change in 2,3-DPG Levels (HV 400 mg QD, Day 14, 6 h after first daily dose): −54%
